Reference: paper PMC8147254, “Efflux at the Blood-Brain Barrier Reduces the Cerebral Exposure to Ochratoxin A, Ochratoxin α, Citrinin and Dihydrocitrinone” (Toxins, 2021)
Read-outs that look alike come from different tables or passages of the source.

Assays:
in vitro [1] = settings: pig
PBCEC [2] = assay: Electrical capacitance cCL of the cell monolayer by impedance spectroscopy; assay type: cell-based, porcine; settings: 1 µM apical, referred to t = 0 h, n = 9 (negative control 99 ± 2%)
Experimental: (§1) In order to study the barrier integrity PBCEC were incubated with 1 µM OTA, OTα, CIT and DHCIT in the apical compartment (blood side) of Transwell® filter inserts for 48 h. The TEER values as well as the electrical capacitance (cCL) were monitored by cellular impedance spectroscopy (Figure 4A,B). As a negative control the permeability of […] was measured after 48 h. Sucrose is not transported by any cellular transport protein and represents a marker for an intact BBB.
Besides the TEER values, the electrical capacitance cCL of the cell monolayer was also monitored for 48 h (Figure 4B). As cellular bilayer membranes behave like an electrical capacitor, they influence the cellular impedance. Changes in cCL are markers for the integrity of the cells. Weak cytotoxic effects lead to a reduction of cCL, whereas strong cytotoxic effects result in an exponential increase in cCL to more than 150% due to the usually observed detachment of the cells from the surface.
For barrier integrity, TEER values were monitored using a cellZscope® cellular impedance spectrometer (nanoAnalytics, Münster, Germany). […]. The detailed protocols can be found in the Supplementary Materials.
After 48 h the medium was […]
The Transwell® filters were briefly […]
equipped with a 24 12‐well Transwell® filter setup. Each well was previously filled with 1650 μL serum‐free medium. Transendothelial electrical resistances (TEER) were analyzed using the cellZscope® device. Only Transwell® filters with TEER values of more than 600 Ω∙cm² and electrical […]
76 μ L of the medium in the apical […]
concentration of the mycotoxins was 1 μM at the beginning of the mycotoxin incubation. The final solvent concentration was 0.1% ACN. […]
and 48 h after toxin application. […]

PBCEC [3] = settings: for cytotoxic or barrier-weakening (adverse) effects / effect on cellular viability: up to 10 µM
PBCEC [4] = settings: 48 h
in vitro [5] = settings: pig; remark: listed apart in the source
Experimental: (§2) For transfer studies from the apical (blood) side to the basolateral compartment (brain side), 1 µM of mycotoxins were applied on the apical side of the Transwell® filter compartment. Over 48 h, OTA, OTα, CIT, and DHCIT were quantified at eight points in time in both compartments by HPLC-MS/MS in order to investigate the transfer and potential metabolism of the applied compounds.
(§3) Both devices were operated with Analyst 1.6.2 software (SCIEX Germany GmbH, Darmstadt, Germany). Chromatographic separation of OTA, OTα, CIT, and DHCIT was performed on a 100 mm × 2.1 mm Halo RP-Amide 2.7 µm column (Advanced Materials Technology, Wilmington, NC, USA) equipped with an Ultra filter (KrudKatcher, Phenomenex, Aschaffenburg, Germany) at 40 °C using a gradient of ACN+1% formic acid (FA) (Solvent A) and H2O+1% FA (solvent B) at a flow rate of 250 µL/min. […] Afterwards, the column was re-equilibrated for 4 min. An injection volume of 5 µL was used. A diverter valve was used to exclude the first 5 min of the HPLC run from the mass spectrometer and reduce matrix contamination. The Ion Drive Turbo V ion source was heated to 400 °C. Further conditions were curtain gas (CUR) 35 psi N2, nebuliser gas (GS1) 45 psi N2, heater gas (GS2) 55 psi N2, and ion spray voltage 4500 V in positive and −4500 V in negative ionization mode; each MRM transition was monitored for 5 ms. Detailed mass spectrometer settings are given in the Supplementary Materials of this article.
(§4) The permeability coefficients p were calculated according to (1) as described in detail in [15]:(1) p[cm/s]=cbas[%]/[…]·Vap[cm³]/A[cm^2]·t[s] where cbas is the mycotoxin concentration in the basolateral compartment at a certain time t [s]. The initial concentration in the apical compartment is c0 h,ap and Vap is the volume of the compartment at the beginning of the experiment. A is the area of the filter insert membrane. The resulting permeability of the mycotoxin across the cell monolayer pc was calculated as shown in (2):(2) 1/pc [cm/s]=1/pc+f [cm/s][…]1/pf[cm/s] where pc+f is the permeability coefficient of the transfer study and pf the permeability coefficient of the cell-free polycarbonate filter membrane. […]
(§5) serum) and centrifugation at 220 × g at 20 °C for 10 min the supernatant was removed. Fresh complete medium was added and the cell pellet was gently resuspended twice to a final concentration of 150,000 cells/mL. 100 μ L of this suspension were seeded on rat‐tail collagen coated 96‐well plates (rat‐ tail collagen was isolated as described previously) resulting in 15,000 cells per well. PBCEC were incubated at 37 °C, 5% CO2 in a saturated humidified atmosphere. After 48 h the medium was replaced with serum‐free medium (DMEM/Ham’s F‐12 with 100 U/mL penicillin, 100 μg/mL […]
(§6) Aldrich, Steinheim, Germany)). […]
(§7) The thawing and seeding procedure was performed according to the protocol already described for the viability test as previously published. Instead of using 96‐well plates, 500 μL PBCEC suspension (500,000 cells/mL) were seeded in the upper (apical) compartment of a 12‐well Transwell®

PBCEC monolayer = assay: in vitro; settings: for amount in the apical compartment after 48 h, of initially applied amount / amount transferred to the basolateral compartment after 48 h, of initially applied amount: 1 µM (760 pmol) apical, n = 9
Experimental: as §2, §3, §4, §5, §6, §7

PBCEC [6] = assay type: cell-based, porcine; settings: 1 µM apical, 48 h, referred to t = 0 h, n = 9 (negative control 88 ± 4%)
Experimental: as §1
For barrier integrity, TEER values were monitored using a cellZscope® cellular impedance spectrometer (nanoAnalytics, Münster, Germany). […]. The detailed protocols can be found in the Supplementary Materials. […]
6.1. Cellular impedance spectroscopy
To monitor the barrier integrity during all transfer studies, the transendothelial electrical resistance (TEER) was measured with a cellZscope® cellular impedance spectrometer (nanoAnalytics, Münster, Germany) using a module suitable for 24 Transwell® filter inserts. After the mycotoxins were added to the cell culture medium, TEER was analyzed until the end of the experiment (48 h). The waiting time after each run was set to 10 min, resulting in 60 scans per 48 h.
The results were normalized to the TEER values of the first impedance spectrum of each well. Data processing was performed using the cellZscope 1.3.4 software (nanoAnalytics, Münster, Germany).

[7] = cellular viability (dehydrogenase activity) compared to the negative control, 1 µM, 48 h, CCK-8, n = 18
[8] = cellular viability (dehydrogenase activity) compared to the negative control, 10 µM, 48 h, CCK-8, n = 18

Compound	viability at 1 µM (in vitro [1]; [7]) [%]	viability at 10 µM (in vitro [1]; [8]) [%]	electrical capacitance cCL after 48 h (PBCEC [2]) [%]	cytotoxic or barrier-weakening (adverse) effects (PBCEC [3])	effect on cellular viability (PBCEC [3]; 48 h)	cellular morphology (PBCEC [4]; 10 µM)	Papp A→B (in vitro [5]) [×10⁻⁶ cm/s]	amount in the apical compartment after 48 h, of initially applied amount (PBCEC monolayer) [%]	amount transferred to the basolateral compartment after 48 h, of initially applied amount (PBCEC monolayer) [%]	relative TEER value after 48 h (PBCEC [6]) [%]	dehydrogenase activity compared to the negative control (PBCEC [3]; 10 nM, 48 h, CCK-8, n = 18) [%]	cellular morphology (PBCEC [4]; 100 nM and lower concentrations)	viability at 1 µM (in vitro [1]) [%]	viability at 10 µM (in vitro [1]) [%]	permeability relative to the negative control 14C sucrose (factor) (PBCEC monolayer; pig)
C[C@@H]1Cc2c(Cl)cc(C(=O)O)c(O)c2C(=O)O1 [OTα, ochratoxin α]	119 ± 18	100 ± 14	98 ± 2	no adverse effects	neither altered the cellular viability	unremarkable	0.68 ± 0.15	86 ± 6	19 ± 4	92 ± 16	–	–	–	–	–
C[C@@H]1Cc2c(Cl)cc(C(=O)N[C@@H](Cc3ccccc3)C(=O)O)c(O)c2C(=O)O1 [OTA, Ochratoxin A]	92 ± 23	3 ± 4	96 ± 4	–	–	very similar morphological changes of the PBCEC as they were observed for 10 µM T-2 toxin	0.38 ± 0.08	96 ± 7	14 ± 3	62 ± 10	112 ± 12	no morphological changes	–	–	–
CC1=C2C(=CO[C@H](C)[C@H]2C)C(O)=C(C(=O)O)C1=O [CIT, Citrinin]	–	–	97 ± 4	no adverse effects	neither altered the cellular viability	unremarkable	1.79 ± 0.4	67 ± 3	40 ± 4	81 ± 10	–	–	106 ± 13	134 ± 13	ca. 4
Cc1c(O)c(C(=O)O)c(O)c2c1[C@H](C)[C@@H](C)OC2=O [DHCIT, dihydrocitrinone]	–	–	99 ± 4	no adverse effects	neither altered the cellular viability	unremarkable	0.51 ± 0.14	87 ± 13	14 ± 3	79 ± 9	–	–	96 ± 11	87 ± 9	–
